Measurements reported in ChEMBL document CHEMBL2073892, “Substitution of Trp1242 of TM17 alters substrate specificity of human multidrug resistance protein 3” (Am J Physiol Gastrointest Liver Physiol, 2003).

Target: Multidrug resistance associated protein (Homo sapiens) (UniProt Q96QA9)
Experiment: TP_TRANSPORTER: uptake in membrane vesicles from HEK293T cells
Format: functional, cell membranes
Conditions: HEK293; Membrane vesicle

Sequence of Multidrug resistance associated protein (Homo sapiens) (Q96QA9 as listed by the source): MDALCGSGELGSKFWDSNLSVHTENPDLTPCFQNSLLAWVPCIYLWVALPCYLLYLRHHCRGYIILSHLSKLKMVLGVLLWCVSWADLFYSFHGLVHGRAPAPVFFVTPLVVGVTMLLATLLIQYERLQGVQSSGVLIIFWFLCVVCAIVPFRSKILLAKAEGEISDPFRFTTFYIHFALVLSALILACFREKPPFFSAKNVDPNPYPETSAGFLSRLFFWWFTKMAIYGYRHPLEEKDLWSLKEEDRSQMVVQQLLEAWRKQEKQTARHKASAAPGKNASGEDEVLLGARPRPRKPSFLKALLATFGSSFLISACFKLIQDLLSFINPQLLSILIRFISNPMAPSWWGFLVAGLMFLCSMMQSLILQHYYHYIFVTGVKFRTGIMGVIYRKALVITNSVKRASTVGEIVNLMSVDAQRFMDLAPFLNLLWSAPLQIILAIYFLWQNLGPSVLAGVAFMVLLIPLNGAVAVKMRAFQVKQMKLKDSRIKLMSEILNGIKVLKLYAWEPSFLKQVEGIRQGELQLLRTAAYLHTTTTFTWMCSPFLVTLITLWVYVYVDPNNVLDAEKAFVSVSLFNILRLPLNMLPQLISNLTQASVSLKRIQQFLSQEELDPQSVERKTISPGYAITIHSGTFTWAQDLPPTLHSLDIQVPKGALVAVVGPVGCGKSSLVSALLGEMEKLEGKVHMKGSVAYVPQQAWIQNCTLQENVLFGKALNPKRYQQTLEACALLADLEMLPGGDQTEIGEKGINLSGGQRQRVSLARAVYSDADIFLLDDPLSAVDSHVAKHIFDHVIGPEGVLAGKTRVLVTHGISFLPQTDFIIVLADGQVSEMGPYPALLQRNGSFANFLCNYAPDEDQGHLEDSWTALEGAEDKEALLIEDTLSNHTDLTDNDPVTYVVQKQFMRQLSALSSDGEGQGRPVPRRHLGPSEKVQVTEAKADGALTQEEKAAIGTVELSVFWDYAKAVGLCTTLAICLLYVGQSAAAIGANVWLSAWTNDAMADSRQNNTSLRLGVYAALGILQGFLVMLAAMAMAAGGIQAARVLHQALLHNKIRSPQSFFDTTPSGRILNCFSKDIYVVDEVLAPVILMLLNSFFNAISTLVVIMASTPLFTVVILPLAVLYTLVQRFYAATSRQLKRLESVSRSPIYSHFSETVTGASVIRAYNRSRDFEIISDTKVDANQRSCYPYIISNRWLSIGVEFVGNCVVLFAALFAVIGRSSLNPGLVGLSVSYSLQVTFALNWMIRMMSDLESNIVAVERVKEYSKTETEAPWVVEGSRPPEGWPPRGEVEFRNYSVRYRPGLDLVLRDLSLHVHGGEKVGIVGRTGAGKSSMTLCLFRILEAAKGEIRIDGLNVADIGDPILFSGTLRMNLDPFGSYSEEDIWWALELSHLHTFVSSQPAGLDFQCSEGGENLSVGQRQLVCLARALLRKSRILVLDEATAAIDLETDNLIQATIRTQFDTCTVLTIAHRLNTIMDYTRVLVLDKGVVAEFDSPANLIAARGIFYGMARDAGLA

Row | Activity | SMILES
1 | substrate [+] | CCCCC/C=C\C\C=C/C=C/C=C/[C@@H](SC[C@@H](NC(=O)CC[C@H](N)C(=O)O)C(=O)NCC(=O)O)[C@@H](O)CCCC(=O)O
2 | substrate [+] | CN(Cc1cnc2nc(N)nc(N)c2n1)c1ccc(C(=O)N[C@@H](CCC(=O)O)C(=O)O)cc1
